Here are results for 4 compounds from patent US4059693A, “Analgesic action of substance P” (priority 1976, dated 1977).

In one data set the test system is Male Swiss Webster mice. To be noted: mouse, in vivo; for Reaction times with naloxone: ip.
Another data set deals with human blister base. As to conditions: isolated, not pure compound per the patent; cited from earlier work.
The test system of another data set is test animals. As to the kind of experiment: Time course of analgesia in test animals. The class given is in vivo. The text has this: The dosage rate is selected so as to provide analgesia for a useful minimum period of time, while at the same time avoiding any impact of sudden severe lowering of blood pressure.
The next data set concerns mammals. As to the kind of experiment: Analgesic potency, addictiveness and side-effects with morphine sulfate as standard of reference. The class given is in vivo.
In data set [1] the test system is mice. The experiment in a line: Reaction time in mice after intravenous injection in the tail vein. The class given is in vivo. As to conditions: 50 ng iv tail vein, 90 minutes. As for the experimental part: 50 ng of Substance P was administered peripherally to mice by intravenous injection in the tail vein. The mean reaction time at 90 minutes was 6.2 seconds.

The test system of a further data set is anaesthetized rats. To be noted: injected into anaesthetized rats; cited from earlier work.
The test system of the next data set is blood pressure. To be noted: intravenous administration described in the prior art; cited from earlier work.
Data set [2] concerns mice. The experiment in a line: Hot plate analgesiometer in mice, intraperitoneal injection. Format: in vivo. The protocol:
The drug was administered by intraperitoneal injection, employing the solution prepared according to Example 1. Three groups of mice, 5 animals per group, received a single injection ip of Substance P or vehicle alone. Mice weighed 30 grams each. Group 1: Substance P, 5 microgram per mouse ([…])([…]) Group 2: Substance P, 1 microgram per mouse (1 × 10^-6 g)(33.3 microgram/kg) Group 3: Vehicle alone
On the day before the animals were to be given the drug, each animal was tested on the hot plate analgesiometer for its reaction time (the time in seconds after placing on the hot plate until the animal jumps). The next day animals were given the injection and then tested on the analgesiometer at times of 30, 60, 90, 120 and 150 minutes after the injection. From the reaction times observed the control reaction time determined the previous day was subtracted. The reaction times given in the table below are the increase in reaction time (over the control value) due to the injection.

For a further data set, the system named is brain opiate receptor. As to conditions: in vitro; cited from earlier work.
For data set [3] the following is noted: cited from earlier work.

With `CN1CC[C@]23c4c5ccc(O)c4O[C@H]2[C@@H](O)C=C[C@H]3[C@H]1C5.O=S(=O)(O)O` [MS, morphine sulfate, reference compound], the “Reaction times with naloxone” value in the data set with Male Swiss Webster mice was “not increased during the first measurement, but gradually became longer”.
For the compound `CSCC[C@H](NC(=O)[C@H](CC(C)C)NC(=O)CNC(=O)[C@H](Cc1ccccc1)NC(=O)[C@H](Cc1ccccc1)NC(=O)[C@H](CCC(N)=O)NC(=O)[C@H](CCC(N)=O)NC(=O)[C@@H]1CCCN1C(=O)[C@H](CCCCN)NC(=O)[C@@H]1CCCN1C(=O)[C@@H](N)CCCNC(=N)N)C(N)=O` [Substance P, H-Arg-Pro-Lys-Pro-Gln-Gln-Phe-Phe-Gly-Leu-Met-NH2], the “Algogen (pain-producing) activity” value in the data set with human blister base is given as “very potent algogen”. Also, the “Commencement of analgesia following administration” value with test animals lay in the range of 20 to 30 min. The “Time to peak effectiveness of analgesia” value in the data set with test animals is listed as “about 1.5 hours”. The Addictiveness result with mammals (in vivo) was “nonaddictive”. The Side-effects entry in the data set with mammals (in vivo) is “relatively free from significant side-effects”. In addition, the “Potency as an analgesic relative to morphine sulfate” value in the data set on mammals (morphine sulfate as standard of reference) is given as “about 450 times”. In the data set with mice [1], this compound yielded a Mean reaction time of 6.2 s. Moreover, in the data set with Male Swiss Webster mice, the “Reaction times compared to those of controls” value is on record as “significantly increased”. Also, in the data set on Male Swiss Webster mice, the “Reaction times with naloxone” value is “not increased during the first measurement, but gradually became longer”. For the same compound, the Sialogogic activity result in the data set on anaesthetized rats is recorded as “stimulated salivary secretion”. Further, in the data set with blood pressure, the “Duration of sharp lowering of blood pressure” value was no more than 7 min. For the same compound, the “Reaction Time Over Controls” value with mice [2] (Group 1: (5 × 10^-9 g)(0.167 microgram/kg) ip, 30 min) came out at 7.04 ± 1.91 s; in the data set on mice [2] (Group 1: (5 × 10^-9 g)(0.167 microgram/kg) ip, 60 min) it was 6.56 ± 2.4 s; with mice [2] (Group 1: (5 × 10^-9 g)(0.167 microgram/kg) ip, 90 min) it was 8.36 ± 3.2 s; in the data set with mice [2] (Group 1: (5 × 10^-9 g)(0.167 microgram/kg) ip, 120 min), 6.24 ± 1.4 s; with mice [2] (Group 1: (5 × 10^-9 g)(0.167 microgram/kg) ip, 150 min) it was 3.84 ± 2.12 s; with mice [2] (Group 2: 1 microgram per mouse (33.3 microgram/kg) ip, 30 min), 7.6 ± 2.68 s. Further, the “Reaction Time Over Controls” value was 11.44 ± 3.49 s in the data set on mice [2] (Group 2: 1 microgram per mouse (33.3 microgram/kg) ip, 60 min); 10.96 ± 1.33 s in the data set with mice [2] (Group 2: 1 microgram per mouse (33.3 microgram/kg) ip, 90 min); 8.2 ± 3.18 s in the data set with mice [2] (Group 2: 1 microgram per mouse (33.3 microgram/kg) ip, 120 min); 4.08 ± 1.26 s in the data set with mice [2] (Group 2: 1 microgram per mouse (33.3 microgram/kg) ip, 150 min). The “Increases in reaction times compared to the vehicle controls (Student t test)” value was “not statistically significant” with mice [2] (groups 1 and 2, 150 min); “significant” in the data set on mice [2] (groups 1 and 2, all times except 150 min).
For the compound “Lipotropin C-Fragment: the entire 61-91 LPH fragment, extracted from pig pituitary (YGGFMTSEKSQTPLVTLFKNAIVKNAHKKGQ; Beta-endorphin; UniProt P01192 237-267, looked up)”, the “Potency relative to methionine enkephalin in inhibiting binding of naloxone and dihydromorphine” value with brain opiate receptor is given as “approximately thirty”.
In the case of Tyr-Gly-Gly-Phe-Met [Met-Enk], the “Analgesic activity in vivo” value in data set [3] is given as “does not exhibit significant analgesic activity in vivo”.
